Measured values as given in patent US7414072B2, “Aryl 5-thio-β-d-glucopyranoside derivatives and therapeutic agents for diabetes containing the same” (Taisho Pharmaceutical Co., Ltd., priority 2002, dated 2008).
“And” between values parts separate entries of the source, which are not always exact repeats. Identical values can stand only once.

With CCc1ccc(Cc2ccccc2O[C@@H]2S[C@H](CO)[C@@H](O)[C@H](O)[C@H]2O)cc1 [Compound 1, 2′-(4′-ethylbenzyl)phenyl 5-thio-β-D-glucopyranoside] the melting point was 154 to 160 °C and 154 to 169 °C and 156.5 to 157.5 °C.

First: CCc1ccc(Cc2cc(Cl)ccc2O[C@@H]2S[C@H](CO)[C@@H](O)[C@H](O)[C@H]2O)cc1 [Compound 2, 4′-chloro-2′-(4′-ethylbenzyl)phenyl 5-thio-β-D-glucopyranoside]
Second: CCCCc1ccc(Cc2cc(Cl)ccc2O[C@@H]2S[C@H](CO)[C@@H](O)[C@H](O)[C@H]2O)cc1 [Compound 46, 2′-(4′-butylbenzyl)-4′-chlorophenyl 5-thio-β-D-glucopyranoside]
The melting point of the first is higher: 173.5 to 177.5 °C for the first, 165 to 168 °C for the second.

Compared with Cc1ccc(Cc2ccccc2O[C@@H]2S[C@H](CO)[C@@H](O)[C@H](O)[C@H]2O)cc1 [Compound 3, 2′-(4′-methylbenzyl)phenyl 5-thio-β-D-glucopyranoside], OC[C@H]1S[C@@H](Oc2ccccc2Cc2ccc(F)cc2)[C@H](O)[C@@H](O)[C@@H]1O [Compound 9, 2′-(4′-fluorobenzyl)phenyl 5-thio-β-D-glucopyranoside] is lower in melting point: 184 to 186 °C for the first, 157 to 158.5 °C for the second.

First: COc1ccc(Cc2ccccc2O[C@@H]2S[C@H](CO)[C@@H](O)[C@H](O)[C@H]2O)cc1 [Compound 4, 2′-(4′-methoxybenzyl)phenyl 5-thio-β-D-glucopyranoside]
Second: CCOc1ccc(Cc2ccccc2O[C@@H]2S[C@H](CO)[C@@H](O)[C@H](O)[C@H]2O)cc1 [Compound 5, 2′-(4′-ethoxybenzyl)phenyl 5-thio-β-D-glucopyranoside]
The melting point of the first is lower: 166 to 167.5 °C for the first, 182 to 183.5 °C for the second.

First: CCc1ccc(Cc2cc(C)ccc2O[C@@H]2S[C@H](CO)[C@@H](O)[C@H](O)[C@H]2O)cc1 [Compound 7, 2′-(4′-ethylbenzyl)-4′-methylphenyl 5-thio-β-D-glucopyranoside]
Second: CCc1ccc(Cc2cc(F)ccc2O[C@@H]2S[C@H](CO)[C@@H](O)[C@H](O)[C@H]2O)cc1 [Compound 8, 2′-(4′-ethylbenzyl)-4′-fluorophenyl 5-thio-β-D-glucopyranoside]
The melting point of the first is lower: 154 to 156 °C for the first, 163 to 165.5 °C for the second.

Compared with CCc1ccc(Cc2cc(Br)ccc2O[C@@H]2S[C@H](CO)[C@@H](O)[C@H](O)[C@H]2O)cc1 [Compound 10, 4′-bromo-2′-(4′-ethylbenzyl)phenyl 5-thio-β-D-glucopyranoside], CCc1ccc(Cc2cc(CO)ccc2O[C@@H]2S[C@H](CO)[C@@H](O)[C@H](O)[C@H]2O)cc1 [Compound 13, 2′-(4′-ethylbenzyl)-4′-(hydroxymethyl)phenyl 5-thio-β-D-glucopyranoside] is higher in melting point: 172 to 173.5 °C for the first, 202.5 to 205 °C for the second.

First: OC[C@H]1S[C@@H](Oc2ccccc2Cc2ccccc2)[C@H](O)[C@@H](O)[C@@H]1O [Compound 11, 2′-benzylphenyl 5-thio-β-D-glucopyranoside]
Second: OC[C@H]1S[C@@H](Oc2ccccc2OCc2ccccc2)[C@H](O)[C@@H](O)[C@@H]1O [Compound 25]
The melting point of the first is higher: 171 to 174 °C for the first, 148 to 150 °C for the second.

First: CCc1ccc(Cc2c(O)cccc2O[C@@H]2S[C@H](CO)[C@@H](O)[C@H](O)[C@H]2O)cc1 [Compound 14, 2′-(4′-ethylbenzyl)-3′-hydroxyphenyl 5-thio-β-D-glucopyranoside]
Second: CCc1ccc(Cc2ccc(O)cc2O[C@@H]2S[C@H](CO)[C@@H](O)[C@H](O)[C@H]2O)cc1 [Compound 21, 2′-(4′-ethylbenzyl)-5′-hydroxyphenyl 5-thio-β-D-glucopyranoside]
The melting point of the first is higher: 238 to 242.5 °C for the first, 172 to 173.5 °C for the second.

Compared with CCc1ccc(Cc2cc(C(=O)OC)ccc2O[C@@H]2S[C@H](CO)[C@@H](O)[C@H](O)[C@H]2O)cc1 [Compound 15, 2′-(4′-ethylbenzyl)-4′-methoxycarbonylphenyl 5-thio-β-D-glucopyranoside], CCc1ccc(Cc2cc(C(=O)O)ccc2O[C@@H]2S[C@H](CO)[C@@H](O)[C@H](O)[C@H]2O)cc1 [Compound 16, 4′-carboxy-2′-(4′-ethylbenzyl)phenyl 5-thio-β-D-glucopyranoside] is higher in melting point: 196 to 198 °C for the first, 219 to 220.5 °C for the second.

First: CCc1ccc(Cc2ccc(OCOC)cc2O[C@@H]2S[C@H](CO)[C@@H](O)[C@H](O)[C@H]2O)cc1 [Compound 20, 2′-(4′-ethylbenzyl)-5′-(methoxymethyloxy)phenyl 5-thio-β-D-glucopyranoside]
Second: CCc1ccc(Cc2ccc(CO)cc2O[C@@H]2S[C@H](CO)[C@@H](O)[C@H](O)[C@H]2O)cc1 [Compound 39, 2′-(4′-ethylbenzyl)-5′-(hydroxymethyl)phenyl 5-thio-β-D-glucopyranoside]
The melting point of the first is lower: 175.5 to 180 °C for the first, 206 to 211 °C for the second.

First: CCc1ccc(Cc2ccccc2O[C@@H]2S[C@H](COC(=O)OC)[C@@H](O)[C@H](O)[C@H]2O)cc1 [Compound 23, 2′-(4′-ethylbenzyl)phenyl 6-O-methoxycarbonyl 5-thio-β-D-glucopyranoside]
Second: OCc1ccc(Cc2ccccc2O[C@@H]2S[C@H](CO)[C@@H](O)[C@H](O)[C@H]2O)cc1 [Compound 56, 2′-(4′-hydroxymethylbenzyl)phenyl 5-thio-β-D-glucopyranoside]
The melting point of the first is lower: 102 to 104.5 °C for the first, 184 to 186.5 °C for the second.

First: OC[C@H]1S[C@@H](Oc2ccccc2Cc2ccncc2)[C@H](O)[C@@H](O)[C@@H]1O [Compound 24]
Second: CCc1cccc(Cc2ccccc2O[C@@H]2S[C@H](CO)[C@@H](O)[C@H](O)[C@H]2O)c1 [Compound 57]
The melting point of the first is higher: 179 to 180 °C for the first, 144 to 145 °C for the second.

First: O=C(Nc1ccccc1)c1cc(Cl)ccc1O[C@@H]1S[C@H](CO)[C@@H](O)[C@H](O)[C@H]1O [Compound 27]
Second: OC[C@H]1S[C@@H](Oc2ccc(Cl)cc2Cc2ccccc2F)[C@H](O)[C@@H](O)[C@@H]1O [Compound 44, 4′-chloro-2′-(2′-fluorobenzyl)phenyl 5-thio-β-D-glucopyranoside]
The melting point of the first is lower: 96 to 105 °C for the first, 170 to 173 °C for the second.

Compared with CCc1ccc(Cc2cc(Cl)cc(Cl)c2O[C@@H]2S[C@H](CO)[C@@H](O)[C@H](O)[C@H]2O)cc1 [Compound 31, 4′,6′-dichloro-2′-(4′-ethylbenzyl)phenyl 5-thio-β-D-glucopyranoside], CCc1ccc(Cc2cccc(O[C@@H]3S[C@H](CO)[C@@H](O)[C@H](O)[C@H]3O)c2)cc1 [Compound 49] is higher in melting point: 72 to 80 °C for the first, 132 to 134 °C for the second.

First: Cc1ccc(Nc2ccccc2O[C@@H]2S[C@H](CO)[C@@H](O)[C@H](O)[C@H]2O)cc1 [Compound 34, 2′-(p-Toluidino)phenyl 5-thio-β-D-glucopyranoside]
Second: Cc1ccc(Sc2ccccc2O[C@@H]2S[C@H](CO)[C@@H](O)[C@H](O)[C@H]2O)cc1 [Compound 38]
The melting point of the first is higher: 152 to 153 °C for the first, 140 to 142 °C for the second.

First: OC[C@H]1S[C@@H](Nc2ccccc2Cc2ccccc2)[C@H](O)[C@@H](O)[C@@H]1O [Compound 35]
Second: CCSc1ccc(Cc2ccccc2O[C@@H]2S[C@H](CO)[C@@H](O)[C@H](O)[C@H]2O)cc1 [Compound 48, 2′-(4′-ethylthiobenzyl)phenyl 5-thio-β-D-glucopyranoside]
The melting point of the first is lower: 144 to 151 °C for the first, 174 to 176.5 °C for the second.

Compared with Cc1ccc(Cc2ccccc2O[C@@H]2S[C@H](CO)[C@@H](O)[C@H](O)[C@H]2O)nc1 [Compound 36], Cc1csc(Cc2ccccc2O[C@@H]2S[C@H](CO)[C@@H](O)[C@H](O)[C@H]2O)n1 [Compound 37] is higher in melting point: 177 to 180 °C for the first, 197 to 200 °C for the second.

First: COC(=O)c1ccc(Cc2cc(Cl)ccc2O[C@@H]2S[C@H](CO)[C@@H](O)[C@H](O)[C@H]2O)cc1 [Compound 40, 4′-chloro-2′-(4′-methoxycarbonylbenzyl)phenyl 5-thio-β-D-glucopyranoside]
Second: CC(=O)Nc1ccc(Cc2cc(Cl)ccc2O[C@@H]2S[C@H](CO)[C@@H](O)[C@H](O)[C@H]2O)cc1 [Compound 47, 2′-(4′-acetylaminobenzyl)-4′-chlorophenyl 5-thio-β-D-glucopyranoside]
The melting point of the first is lower: 74 to 76 °C for the first, 235 to 236.5 °C for the second.

First: O=[N+]([O-])c1ccc(Cc2cc(Cl)ccc2O[C@@H]2S[C@H](CO)[C@@H](O)[C@H](O)[C@H]2O)cc1 [Compound 41, 4′-chloro-2′-(4′-nitrobenzyl)phenyl 5-thio-β-D-glucopyranoside]
Second: Nc1ccc(Cc2cc(Cl)ccc2O[C@@H]2S[C@H](CO)[C@@H](O)[C@H](O)[C@H]2O)cc1 [Compound 42, 2′-(4′-aminobenzyl)-4′-chlorophenyl 5-thio-β-D-glucopyranoside]
The melting point of the first is lower: 180 to 182 °C for the first, 206 to 208 °C for the second.

Compared with OC[C@H]1S[C@@H](Oc2ccccc2Cc2ccc(-n3cccn3)cc2)[C@H](O)[C@@H](O)[C@@H]1O [Compound 43, 2′-(4′-pyrazol-1′-ylbenzyl)phenyl 5-thio-β-D-glucopyranoside], Cn1cc(Cc2ccccc2O[C@@H]2S[C@H](CO)[C@@H](O)[C@H](O)[C@H]2O)cn1 [Compound 55] is lower in melting point: 208 to 210 °C for the first, 148.5 to 149.5 °C for the second.

First: CCCCOc1ccc(Cc2cc(Cl)ccc2O[C@@H]2S[C@H](CO)[C@@H](O)[C@H](O)[C@H]2O)cc1 [Compound 45, 2′-(4′-butoxybenzyl)-4′-chlorophenyl 5-thio-β-D-glucopyranoside]
Second: CN(C)c1ccc(Cc2cc(Cl)ccc2O[C@@H]2S[C@H](CO)[C@@H](O)[C@H](O)[C@H]2O)cc1 [Compound 52, 4′-chloro-2′-(4′-N,N-dimethylaminobenzyl)phenyl 5-thio-β-D-glucopyranoside]
The melting point of the first is lower: 166 to 169 °C for the first, 183 to 184 °C for the second.

Compared with CCc1ccc(Cc2ccc(O[C@@H]3S[C@H](CO)[C@@H](O)[C@H](O)[C@H]3O)cc2)cc1 [Compound 50], CS(=O)(=O)Nc1ccc(Cc2cc(Cl)ccc2O[C@@H]2S[C@H](CO)[C@@H](O)[C@H](O)[C@H]2O)cc1 [Compound 51, 4′-chloro-2′-(4′-methylsulfonylaminobenzyl)phenyl 5-thio-β-D-glucopyranoside] is higher in melting point: 137 to 138.5 °C for the first, 151 to 153 °C for the second.

First: OC[C@H]1S[C@@H](Oc2c(Cc3c(F)cccc3Cl)cc(Cl)cc2Cc2c(F)cccc2Cl)[C@H](O)[C@@H](O)[C@@H]1O [Compound 53]
Second: CCn1cc(Cc2ccccc2O[C@@H]2S[C@H](CO)[C@@H](O)[C@H](O)[C@H]2O)cn1 [Compound 54]
The melting point of the first is lower: 112 to 118 °C for the first, 175 to 177.5 °C for the second.
